The values that follow come from PubChem BioAssay (NCI).

Test systems include OVCAR-5 ovarian; SK-MEL-2 melanoma; UO-31 renal; SW-620 colon; RXF 393 renal; SNB-75 CNS; NCI-H460 lung; KM12 colon; UACC-62 melanoma; U251 CNS.
What all share (assay): inhibition of tumour cell growth, NCI panel, 48 h

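Tested at 5 concentrations; 48 h exposure; 96-well plates; endpoints linearly interpolated, else capped at highest concentration. Here, GI50 denotes the concentration required for 50% inhibition of growth. The concentration for full growth arrest is given as TGI.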 Some results are limits rather than exact numbers.

For `Fc1ccc2[nH]cc(-c3nc(-c4c[nH]c5ncccc45)cs3)c2c1`, the GI50 is greater than 100 µM in the assay on OVCAR-5 ovarian; greater than 100 µM in the assay on SK-MEL-2 melanoma; 0.478 µM with UO-31 renal; greater than 100 µM in the assay with SW-620 colon; greater than 100 µM in the assay with RXF 393 renal; 1.58 µM with SNB-75 CNS. For the same molecule, the figures for the GI50 in the assay on NCI-H460 lung, in the assay with KM12 colon and with UACC-62 melanoma were 2.11 µM, 4.65 µM and greater than 100 µM, respectively. Also, the TGI in the assay with OVCAR-5 ovarian, in the assay with SK-MEL-2 melanoma, in the assay on UO-31 renal, in the assay on SW-620 colon, in the assay with RXF 393 renal and in the assay on SNB-75 CNS was greater than 100 µM each time. Moreover, the TGI with NCI-H460 lung, with KM12 colon and in the assay on UACC-62 melanoma was greater than 100 µM throughout.

For the molecule `O=[N+]([O-])c1nc(-c2ccccn2)[nH]c1[N+](=O)[O-]`, the TGI in the assay on OVCAR-5 ovarian, in the assay with SK-MEL-2 melanoma, in the assay with UO-31 renal, with SW-620 colon, in the assay with RXF 393 renal and in the assay on SNB-75 CNS was greater than 100 µM in each case. Also, the TGI is greater than 100 µM in the assay with NCI-H460 lung, greater than 100 µM with KM12 colon, greater than 100 µM in the assay with U251 CNS and 85.7 µM with UACC-62 melanoma.

As to `COC1=C2CC(C)CC(OC)C(O)C(C)/C=C(\C)C(OC(N)=O)C(OC)/C=C\C=C(/C)C(=O)NC(=C(C=NC(C)(C)C)C1=O)C2=O` (stereo not given), the TGI with OVCAR-5 ovarian is 74.1 µM; in the assay on SK-MEL-2 melanoma, 12.3 µM; with UO-31 renal, 40.5 µM; in the assay on SW-620 colon, 20.9 µM; in the assay on RXF 393 renal, 4.89 µM; with SNB-75 CNS, 6.15 µM. Moreover, the TGI in the assay on NCI-H460 lung came to 18.4 µM; in the assay on KM12 colon it was 15 µM; with U251 CNS, 21.9 µM; in the assay on UACC-62 melanoma it was 17.6 µM.

Consider `Nc1ncnc2c1ncn2C1OC(COP(=O)(O)O)C(O)C1O` (stereo not given), for which the TGI in the assay with OVCAR-5 ovarian, with SK-MEL-2 melanoma, with UO-31 renal, in the assay with SW-620 colon, with RXF 393 renal and in the assay with SNB-75 CNS was greater than 50 µM each time. Moreover, the TGI with NCI-H460 lung, in the assay with KM12 colon, in the assay with U251 CNS and in the assay on UACC-62 melanoma was greater than 50 µM in each case.

As for `O=C1OC(c2ccccc2)=N/C1=C\c1cccnc1`, the TGI with OVCAR-5 ovarian, with SK-MEL-2 melanoma, in the assay on UO-31 renal, in the assay with SW-620 colon, in the assay with RXF 393 renal and with SNB-75 CNS was greater than 100 µM throughout. For the same molecule, the TGI with NCI-H460 lung, in the assay with KM12 colon, in the assay with U251 CNS and in the assay on UACC-62 melanoma was greater than 100 µM in each case.

Consider `CCOC(=O)NC(Nc1ncccn1)(C(F)(F)F)C(F)(F)F`, for which the TGI with OVCAR-5 ovarian, in the assay on SK-MEL-2 melanoma, in the assay on UO-31 renal, in the assay with RXF 393 renal, with SNB-75 CNS and with NCI-H460 lung was greater than 100 µM each time. Besides, the TGI in the assay on KM12 colon, with U251 CNS and in the assay with UACC-62 melanoma was greater than 100 µM in each case.

Turning to `CC(=O)OC1C(C)OC(Oc2c(C)c3c4c(c2O)[C@@H](C)CC[C@@H]4[C@@H](C)C[C@H]3C=C(C)C)C(O)C1O` (stereo not given in full), the GI50 in the assay on SK-MEL-2 melanoma is greater than 100 µM; with UO-31 renal it was 22.6 µM; in the assay with RXF 393 renal, 4.11 µM; in the assay on NCI-H460 lung, 3.57 µM; in the assay on KM12 colon, 1.87 µM. Further, the TGI was greater than 100 µM in the assay with SK-MEL-2 melanoma; greater than 100 µM in the assay with UO-31 renal; 20.9 µM in the assay on RXF 393 renal; greater than 100 µM in the assay with NCI-H460 lung; 3.66 µM in the assay with KM12 colon.

For the molecule `N/C(=N\N=C/c1ccccc1O)NO`, the TGI with OVCAR-5 ovarian was greater than 100 µM; in the assay on SK-MEL-2 melanoma, greater than 90.8 µM; with UO-31 renal, greater than 95.5 µM; in the assay with SW-620 colon, greater than 100 µM; in the assay with RXF 393 renal, 25.9 µM; in the assay on SNB-75 CNS it was greater than 29.9 µM. In addition, the TGI in the assay on NCI-H460 lung is greater than 43.7 µM; in the assay on KM12 colon, greater than 100 µM; in the assay on U251 CNS it was greater than 100 µM; with UACC-62 melanoma, 38.4 µM.

As to `CCS(=O)(=O)N1CCC(C(C)n2c(C)c(C(=O)NCc3c(OC)cc(C)[nH]c3=O)c3ccccc32)CC1` (stereo not given), the GI50 in the assay with OVCAR-5 ovarian is greater than 100 µM; with SK-MEL-2 melanoma it was greater than 100 µM; with UO-31 renal, greater than 100 µM; in the assay with SW-620 colon, greater than 100 µM; in the assay with RXF 393 renal it was greater than 100 µM; in the assay with SNB-75 CNS, 36.3 µM. The GI50 with NCI-H460 lung, in the assay on KM12 colon and in the assay with U251 CNS was greater than 100 µM each time. In addition, the TGI in the assay with OVCAR-5 ovarian, in the assay on SK-MEL-2 melanoma, in the assay with UO-31 renal, with SW-620 colon, in the assay on RXF 393 renal and in the assay with SNB-75 CNS was greater than 100 µM throughout. Also, the TGI with NCI-H460 lung, in the assay on KM12 colon and in the assay with U251 CNS was greater than 100 µM throughout.

With `O=C1OC[C@@H]2[C@@H](O)CCCCCN12`, the TGI in the assay on OVCAR-5 ovarian, in the assay with SK-MEL-2 melanoma, in the assay on UO-31 renal, in the assay on SW-620 colon, in the assay on RXF 393 renal and with SNB-75 CNS was greater than 100 µM in each case. The TGI with NCI-H460 lung, with KM12 colon, in the assay with U251 CNS and with UACC-62 melanoma was greater than 100 µM throughout.

As for `COc1cc2c(cc1OC)-c1cc3ccccc3c[n+]1CC2`, the TGI with OVCAR-5 ovarian, with SK-MEL-2 melanoma, in the assay on UO-31 renal, in the assay on SW-620 colon, with RXF 393 renal and in the assay with SNB-75 CNS was greater than 100 µM in each case. Also, the TGI in the assay on NCI-H460 lung, with KM12 colon, with U251 CNS and in the assay on UACC-62 melanoma was greater than 100 µM in each case.

Regarding `CC1(C)CC23C4COC(=O)C2CCC1C3CC4=O` (stereo not given), the TGI with OVCAR-5 ovarian was determined as 72.4 µM; with SK-MEL-2 melanoma it was 40.6 µM; in the assay with UO-31 renal, 90.1 µM; with SW-620 colon, 10.2 µM; in the assay on RXF 393 renal it was 4.76 µM; in the assay with SNB-75 CNS it was 57.6 µM. Besides, the TGI is 29.8 µM in the assay with NCI-H460 lung, 27.2 µM in the assay with KM12 colon, 50.7 µM with U251 CNS and 28.7 µM in the assay on UACC-62 melanoma.
